Read-outs that look alike come from different tables or passages of the source.
Assays:
CK1α = target: T1, CK1α (Homo sapiens, UniProt P48729); assay: CK1α NanoBit Assay (HiBiT-tagged CSNK1A1, HEK293 clonal lines); assay type: cell-based; details: HEK293 HiBiT-CSNK1A1/LgBiT cells, 24 h incubation
T1 construct: HEK293 clonal lines with CRISPR KI HiBiT tag on CSNK1A1
Method in brief: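 HEK293 clones carrying a CRISPR knock-in HiBiT tag on CSNK1A1 and stably expressing LgBiT are treated with compound for 24 hours at 37° C, 5% CO2, then read by luminescence. Response is normalized as 100*(S−N)/(P−N) against plate negative and positive controls, and DC50 values are derived.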

CRBN/DDB1 = CRBN/DDB1 (Homo sapiens, UniProt Q96SW2); assay: HTRF binding assay (displacement of Cy5-thalidomide probe from CRBN/DDB1); details: CRBN/DDB1 2.5 nM, Cy5-Thalidomide 100 nM, 30 min; geometric mean; read-out: HTRF_Thali_Disp_DR_geo_IC50
Method in brief: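 HTRF displacement of Cy5-thalidomide (100 nM) from His-tagged CRBN/DDB1 (2.5 nM) with anti-His Tb cryptate in 20 mM HEPES, 20 mM NaCl, 0.2 mM TCEP, 0.2 mM EDTA, 0.005% Tween20. 10-point 1:3 series, 30 min ambient. 665/620 nm ratio fitted 4-parameter for IC50; Ki by Cheng-Prusoff from geometric-mean IC50.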

SKCO1 cell line = assay: Growth inhibition, CyQUANT Direct Cell Proliferation Assay, SKCO1; assay type: cell-based; details: Homo sapiens
Experimental: (§1) SKCO1, LS180, and LS174T cell lines were purchased from ATCC. CW2 cell line was purchased from Riken. GP2D cell line was purchased from Sigma/ECACC. All cell lines were cultured in manufacturer's recommended media at 37° C., 5% CO2. Briefly, cells were suspended in 200 μL of media and seeded at 300 to 1,800 cells per well in tissue culture treated 96-well plates with black walls and clear bottom. Plates were incubated overnight and initial (To) read was performed the following day using CyQUANT Direct Cell Proliferation Assay Kit (Thermo Fisher Scientific) according to manufacturer's protocol. All compounds were solubilized in DMSO and prepared at 3-fold serial dilution, using 9 points starting at 30 μM as highest concentration, administered to cells and incubated for 120 to 168 hours, at which point CyQUANT assay measurement was performed using Acumen Cellista instrument (Ex/Em 480/520 nm). Media-only wells were used as blank, and 0.3% DMSO was used as DMSO-treated cell control. Growth inhibition (percent response) was calculated using the following formula in Excel: “=if ([Compound treated Day N]>[Untreated Day 0, AVG], ([Compound treated Day N]−[Untreated Day 0, AVG])/([Untreated Day N]−[Untreated Day 0, AVG])*100, ([Compound Treated Day N]−[Untreated Day 0, AVG])/([Untreated Day 0, AVG])*100)”. GI50 is the response corresponding to the 50% of untreated control.
(§2) GI50 data are reported in Tables 4a, 4b, 4c, 4d, and 4e for compounds in Table 1. In Tables 4a, 4b, 4c, 4d, and 4e below, According to the code, A represents a GI50 value of ≤0.1 μM, B represents a GI50 value>0.1 μM and ≤1 μM, C represents an GI50 value>1 μM.

CW2 cell line = assay: Growth inhibition, CyQUANT Direct Cell Proliferation Assay, CW2; assay type: cell-based; details: Homo sapiens
Experimental: as §1, §2

GP2D cell line = assay: Growth inhibition, CyQUANT Direct Cell Proliferation Assay, GP2D; assay type: cell-based
Experimental: as §1, §2

LS180 cell line = assay: Growth inhibition, CyQUANT Direct Cell Proliferation Assay, LS180; assay type: cell-based; details: Homo sapiens
Experimental: as §1, §2

LS174T cell line = assay: Growth inhibition, CyQUANT Direct Cell Proliferation Assay, LS174T; assay type: cell-based; details: Homo sapiens
Experimental: as §1, §2

[1] = SK-CO-1, SKCO1, 120 to 168 hours, read-out: SKCO1 GI50
[2] = CW-2, CW2, 120 to 168 hours, read-out: CW2 GI50
[3] = GP2D, 120 to 168 hours, read-out: GP2D GI50
[4] = LS180, 120 to 168 hours, read-out: LS180 GI50
[5] = 120 to 168 hours, read-out: LS174T GI50
[6] = SK-CO-1, read-out: SKCO1 GI50 (μM)
[7] = LS180, read-out: LS180 GI50 (μM)

T1 sequence (P48729 whole entry): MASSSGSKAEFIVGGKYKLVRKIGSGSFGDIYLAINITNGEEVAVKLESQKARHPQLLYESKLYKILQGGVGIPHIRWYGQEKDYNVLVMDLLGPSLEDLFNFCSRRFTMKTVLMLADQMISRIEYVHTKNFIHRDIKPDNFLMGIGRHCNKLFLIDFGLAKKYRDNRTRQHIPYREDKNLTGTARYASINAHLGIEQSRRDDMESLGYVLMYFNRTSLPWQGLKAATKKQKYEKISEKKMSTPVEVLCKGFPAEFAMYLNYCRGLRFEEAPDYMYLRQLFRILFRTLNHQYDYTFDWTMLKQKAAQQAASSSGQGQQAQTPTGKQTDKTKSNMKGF
T1 sequence (Q96SW2 whole entry, further chain): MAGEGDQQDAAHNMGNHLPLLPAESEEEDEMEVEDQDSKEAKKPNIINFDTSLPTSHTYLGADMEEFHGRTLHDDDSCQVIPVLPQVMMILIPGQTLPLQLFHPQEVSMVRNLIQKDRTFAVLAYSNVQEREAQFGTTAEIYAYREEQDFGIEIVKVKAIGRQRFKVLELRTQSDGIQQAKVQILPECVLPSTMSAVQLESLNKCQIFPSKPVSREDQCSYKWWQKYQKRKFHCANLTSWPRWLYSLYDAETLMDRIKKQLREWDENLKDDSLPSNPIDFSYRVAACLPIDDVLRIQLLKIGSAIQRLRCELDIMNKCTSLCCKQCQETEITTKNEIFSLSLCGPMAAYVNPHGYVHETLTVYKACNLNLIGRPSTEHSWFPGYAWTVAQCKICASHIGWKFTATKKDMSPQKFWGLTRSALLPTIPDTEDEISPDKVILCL
T1 sequence (Q16531 2-1140 partner limits assumed): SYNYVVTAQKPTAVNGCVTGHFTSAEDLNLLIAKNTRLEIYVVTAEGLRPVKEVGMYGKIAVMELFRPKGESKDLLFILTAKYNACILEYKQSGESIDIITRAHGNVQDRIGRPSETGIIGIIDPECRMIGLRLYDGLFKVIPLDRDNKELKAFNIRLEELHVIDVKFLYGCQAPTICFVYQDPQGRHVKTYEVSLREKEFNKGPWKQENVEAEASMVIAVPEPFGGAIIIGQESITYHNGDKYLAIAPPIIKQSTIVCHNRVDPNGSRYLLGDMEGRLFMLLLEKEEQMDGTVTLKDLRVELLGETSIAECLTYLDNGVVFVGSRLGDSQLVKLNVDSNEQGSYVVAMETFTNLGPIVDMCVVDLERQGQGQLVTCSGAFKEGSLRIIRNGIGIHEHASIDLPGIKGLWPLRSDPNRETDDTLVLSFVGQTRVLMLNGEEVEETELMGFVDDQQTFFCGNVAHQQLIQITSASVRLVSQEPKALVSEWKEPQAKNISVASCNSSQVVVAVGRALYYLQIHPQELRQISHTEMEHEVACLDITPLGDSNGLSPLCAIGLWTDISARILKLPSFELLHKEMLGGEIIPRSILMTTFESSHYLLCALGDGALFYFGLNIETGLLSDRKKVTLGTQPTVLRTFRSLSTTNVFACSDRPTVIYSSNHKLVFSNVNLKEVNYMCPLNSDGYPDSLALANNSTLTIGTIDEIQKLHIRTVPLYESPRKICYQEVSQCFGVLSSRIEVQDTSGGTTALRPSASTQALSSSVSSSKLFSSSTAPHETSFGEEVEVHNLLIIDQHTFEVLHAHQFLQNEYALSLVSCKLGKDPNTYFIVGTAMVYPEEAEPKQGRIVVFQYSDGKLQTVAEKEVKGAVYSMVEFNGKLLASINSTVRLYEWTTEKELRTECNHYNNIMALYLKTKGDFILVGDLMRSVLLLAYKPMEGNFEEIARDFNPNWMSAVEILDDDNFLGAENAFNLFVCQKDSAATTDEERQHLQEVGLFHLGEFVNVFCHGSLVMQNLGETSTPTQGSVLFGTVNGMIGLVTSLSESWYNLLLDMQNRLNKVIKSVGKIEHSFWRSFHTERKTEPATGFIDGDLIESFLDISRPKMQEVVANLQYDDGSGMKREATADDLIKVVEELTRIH
Sequence of CRBN/DDB1 (Q96SW2 whole entry, species assumed): as the sequence (Q96SW2 whole entry, further chain) above
Sequence of CRBN/DDB1 (Q16531 whole entry partner, species assumed): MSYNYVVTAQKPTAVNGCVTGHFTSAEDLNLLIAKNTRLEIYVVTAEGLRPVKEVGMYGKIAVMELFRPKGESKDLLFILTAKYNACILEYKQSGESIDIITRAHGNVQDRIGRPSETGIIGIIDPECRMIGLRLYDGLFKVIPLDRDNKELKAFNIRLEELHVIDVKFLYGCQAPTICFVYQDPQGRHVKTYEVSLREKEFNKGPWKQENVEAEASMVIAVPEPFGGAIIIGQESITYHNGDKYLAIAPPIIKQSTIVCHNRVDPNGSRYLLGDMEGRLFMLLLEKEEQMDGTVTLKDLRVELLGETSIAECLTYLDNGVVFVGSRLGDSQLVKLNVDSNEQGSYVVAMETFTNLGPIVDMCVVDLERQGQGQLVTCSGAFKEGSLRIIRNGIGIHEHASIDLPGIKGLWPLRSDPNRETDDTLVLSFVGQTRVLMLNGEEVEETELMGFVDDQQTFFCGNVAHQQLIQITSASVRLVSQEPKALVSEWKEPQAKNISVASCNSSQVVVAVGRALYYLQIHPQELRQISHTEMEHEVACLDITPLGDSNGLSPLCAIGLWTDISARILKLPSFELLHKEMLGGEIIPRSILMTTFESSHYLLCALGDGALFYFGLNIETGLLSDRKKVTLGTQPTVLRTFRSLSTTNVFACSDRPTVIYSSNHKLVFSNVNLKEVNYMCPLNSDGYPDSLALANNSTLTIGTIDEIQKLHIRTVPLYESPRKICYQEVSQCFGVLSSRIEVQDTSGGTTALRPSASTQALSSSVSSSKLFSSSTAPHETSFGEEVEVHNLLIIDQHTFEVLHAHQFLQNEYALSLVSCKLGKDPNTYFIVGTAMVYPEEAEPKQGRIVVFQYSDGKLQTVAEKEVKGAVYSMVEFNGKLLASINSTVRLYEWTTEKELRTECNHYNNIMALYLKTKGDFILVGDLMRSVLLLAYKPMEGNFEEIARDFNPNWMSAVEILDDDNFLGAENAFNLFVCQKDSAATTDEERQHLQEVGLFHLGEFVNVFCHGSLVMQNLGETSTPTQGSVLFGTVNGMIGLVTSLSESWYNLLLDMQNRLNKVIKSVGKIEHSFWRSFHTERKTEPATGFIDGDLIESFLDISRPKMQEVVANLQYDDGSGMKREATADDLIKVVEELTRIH

DC50 (CK1α) [µM] | IC50 (CRBN/DDB1) [nM] | GI50 (SKCO1 cell line; [1]) [µM] | Structure (SMILES) | GI50 (CW2 cell line; [2]) [µM] | GI50 (GP2D cell line; [3]) [µM] | GI50 (LS180 cell line; [4]) [µM] | GI50 (LS174T cell line; [5]) [µM] | GI50 (SKCO1 cell line; [6]) [µM] | GI50 (CW2 cell line; CW-2, read-out: CW2 GI50 (μM)) [µM] | GI50 (GP2D cell line; GP2d, read-out: GP2D GI50 (μM)) [µM] | GI50 (LS180 cell line; [7]) [µM] | GI50 (LS174T cell line; read-out: LS174T GI50 (μM)) [µM]
< 0.1 | 100 to 1000 | < 0.1 | C[C@H]1Cc2ccccc2N1C(=O)Nc1ccc2c(c1)CN(C1CCC(=O)NC1=O)C2=O (stereo partly drawn) [Compound 101, (2S)—N-(2-(2,6-dioxopiperidin-3-yl)-1-oxoisoindolin-5-yl)-2-methylindoline-1-carboxamide] | < 0.1 | < 0.1 | < 0.1 | < 0.1 |  |  |  |  | 
< 0.1 | 100 to 1000 | < 0.1 | Cc1cccc2c1CCN2C(=O)Nc1ccc2c(c1)CN(C1CCC(=O)NC1=O)C2=O (stereo not drawn) [Compound 198, N-(2-(2,6-dioxopiperidin-3-yl)-1-oxoisoindolin-5-yl)-4-methylindoline-1-carboxamide] | < 0.1 | < 0.1 | 0.1 to 1 | 0.1 to 1 |  |  |  |  | 
< 0.1 | 100 to 1000 | < 0.1 | O=C1CCC(N2Cc3cc(NC(=O)N4CCc5c4cccc5-n4cccn4)ccc3C2=O)C(=O)N1 (stereo not drawn) [Compound 340, N-(2-(2,6-dioxopiperidin-3-yl)-1-oxoisoindolin-5-yl)-4-(1H-pyrazol-1-yl)indoline-1-carboxamide] | 0.1 to 1 | < 0.1 | 0.1 to 1 | < 0.1 |  |  |  |  | 
< 0.1 | 100 to 1000 | 0.1 to 1 | COC[C@H]1Cc2c(C3CC3)cccc2N1C(=O)Nc1ccc2c(c1)CN(C1CCC(=O)NC1=O)C2=O (stereo partly drawn) [Compound 332, (2R)-4-cyclopropyl-N-(2-(2,6-dioxopiperidin-3-yl)-1-oxoisoindolin-5-yl)-2-(methoxymethyl)indoline-1-carboxamide] | < 0.1 | 0.1 to 1 | 0.1 to 1 | 0.1 to 1 |  |  |  |  | 
< 0.1 | > 1000 | < 0.1 | O=C1CCC(N2Cc3cc(NC(=O)N4CCc5c(F)cccc54)ccc3C2=O)C(=O)N1 (stereo not drawn) [Compound 201, N-(2-(2,6-dioxopiperidin-3-yl)-1-oxoisoindolin-5-yl)-4-fluoroindoline-1-carboxamide] | < 0.1 | < 0.1 | 0.1 to 1 | < 0.1 |  |  |  |  | 
< 0.1 | 100 to 1000 | 0.1 to 1 | COC[C@@H]1Cc2c(C3CC3)cccc2N1C(=O)Nc1ccc2c(c1)CN(C1CCC(=O)NC1=O)C2=O (stereo partly drawn) [Compound 339, (2S)-4-cyclopropyl-N-(2-(2,6-dioxopiperidin-3-yl)-1-oxoisoindolin-5-yl)-2-(methoxymethyl)indoline-1-carboxamide] | 0.1 to 1 | 0.1 to 1 | > 1 | 0.1 to 1 |  |  |  |  | 
< 0.1 | 100 to 1000 | < 0.1 | COC[C@H]1CN(C(=O)Nc2ccc3c(c2)CN(C2CCC(=O)NC2=O)C3=O)c2cccc(C(F)(F)F)c21 (stereo partly drawn) [Compound 329, (3R)—N-(2-(2,6-dioxopiperidin-3-yl)-1-oxoisoindolin-5-yl)-3-(methoxymethyl)-4-(trifluoromethyl)indoline-1-carboxamide] | 0.1 to 1 | 0.1 to 1 | 0.1 to 1 | 0.1 to 1 |  |  |  |  | 

Structure (SMILES) | DC50 (CK1α) [µM] | IC50 (CRBN/DDB1) [nM] | GI50 (SKCO1 cell line; [1]) [µM] | GI50 (CW2 cell line; [2]) [µM] | GI50 (GP2D cell line; [3]) [µM] | GI50 (LS180 cell line; [4]) [µM] | GI50 (LS174T cell line; [5]) [µM] | GI50 (SKCO1 cell line; [6]) [µM] | GI50 (CW2 cell line; CW-2, read-out: CW2 GI50 (μM)) [µM] | GI50 (GP2D cell line; GP2d, read-out: GP2D GI50 (μM)) [µM] | GI50 (LS180 cell line; [7]) [µM] | GI50 (LS174T cell line; read-out: LS174T GI50 (μM)) [µM]
CC1Cc2ccccc2CN1C(=O)Nc1ccc2c(c1)CN(C1CCC(=O)NC1=O)C2=O (stereo not drawn) [Compound 205, N-(2-(2,6-dioxopiperidin-3-yl)-1-oxoisoindolin-5-yl)-3-methyl-3,4-dihydroisoquinoline-2(1H)-carboxamide] | < 0.1 | 100 to 1000 |  |  |  |  |  | < 0.1 | < 0.1 | < 0.1 | 0.1 to 1 | 0.1 to 1
O=C1CCC(N2Cc3cc(NC(=O)N4CC5(CC5)c5ccccc54)ccc3C2=O)C(=O)N1 (stereo not drawn) [Compound 210, N-(2-(2,6-dioxopiperidin-3-yl)-1-oxoisoindolin-5-yl)spiro[cyclopropane-1,3′-indoline]-1′-carboxamide] | < 0.1 | 100 to 1000 |  |  |  |  |  | < 0.1 | < 0.1 | < 0.1 | 0.1 to 1 | < 0.1

— US20250171420A1 (Monte Rosa Therapeutics, Inc., priority 2022, published 2025)
